In US20140155429A1, “Treatment of Cognitive Disorders with Certain Alpha-7 Nicotinic Acid Receptor Agonists in Combination with Nicotine” (EnVivo Pharmaceuticals, Inc., priority 2011, published 2014):

Legend:
schizophrenia subjects = assay: Sensory electrophysiological responses (P50 gating, MMN, P300, N100) in schizophrenia subjects; type: in vivo, human; conditions: in combination with a tobacco-free nicotine dosage form, greater than compound alone, expected at a daily dose as low as 0.3 mg
Protocol: These effects are expected at a daily dose as low as 0.3 mg of (R)-7-chloro-N-(quinuclidin-3-yl)benzo[b]thiophene-2-carboxamide hydrochloride.
Impairment of the ability of central nervous system to inhibit irrelevant sensory information has long been used as a model for understanding the deficits of attention seen in schizophrenic subjects. Two approaches to the measurement of this ability have commonly been employed (see (Heinrichs, 2004; Potter et al., 2006; Turetsky et al., 2007; Umbricht and Krljes, 2005) for reviews and meta-analyses): (1) the sensory gating paradigm in which the presentation of one stimulus normally suppresses the response elicited by a stimulus which rapidly follows it. […] (2) the oddball or orienting paradigm in which a rare or unexpected event elicits a diminished response in schizophrenic subjects because attentional resources are inappropriately focused on less salient aspects of the environment.
Two responses are commonly used assess brain activity: (1) the auditory P50 response elicited by the second member of a pair of clicks; and (2) the mismatch negativity (MMN) or N2 response evoked by a rarely occurring pure tone of no instructed relevance to the subject. Abnormalities in both P50 gating and the MMN have been reported in schizophrenic subjects. […]

humans = assay: Procognitive effects in humans at low doses; type: in vivo, human; conditions: unexpectedly low doses
From the text: Thus, (R)-7-chloro-N-(quinuclidin-3-yl)benzo[b]thiophene-2-carboxamide and pharmaceutically acceptable salts thereof can be used at unexpectedly low doses improve cognition in individuals suffering from impaired cognition and in healthy individuals (i.e., individuals that are not suffering from an apparent cognitive deficit). For example, it can be used to improve cognition in subjects suffering from Alzheimer's disease, schizophrenia and other disorders such as other neurodegenerative diseases (e.g., Huntington's Disease or Parkinson's Disease) and attention deficit disorder. It can be used to treat certain disorders, e.g., Alzheimer's disease, schizophrenia (e.g., paranoid type, disorganized type, catatonic type, and undifferentiated type), schizophreniform disorder, schizoaffective disorder, delusional disorder, positive symptoms of schizophrenia, negative symptoms of schizophrenia at a daily dose of 3 mg, 2.70 mg, 2.50 mg, 2.25 mg, 2 mg, 1.75 mg, 1.50 mg, 1.25 mg, 1 mg, 0.7, 0.5, 0.3 mg or even 0.1 mg. The compound can be used to improve one or more aspects of cognition, e.g., one or more of: executive function, memory (e.g., working memory), social cognition, visual learning, verbal learning and speed of processing. […]

[1] = Memory improvement at a subclinical dose in combination with an acetylcholinesterase inhibitor; type: in vivo; conditions: in combination with an acetylcholinesterase inhibitor also at a subclinical dose
Protocol: Thus, a subject can experience a benefit (e.g., improved memory or cognition) from a combination of drugs each of which is administered at very low, side-effect reducing or side-effect avoiding dose. Moreover, the combination of drugs may provide a benefit for a wider range or subjects and/or over a longer period of treatment.

For `Cl.O=C(N[C@H]1CN2CCC1CC2)c1cc2cccc(Cl)c2s1` [(R)-7-chloro-N-(quinuclidin-3-yl)benzo[b]thiophene-2-carboxamide hydrochloride], the “sensory electrophysiological responses which correlate with improved cognitive and functional performance” value (schizophrenia subjects) was “can improve sensory electrophysiological responses”.

With `O=C(N[C@H]1CN2CCC1CC2)c1cc2cccc(Cl)c2s1` [(R)-7-chloro-N-(quinuclidin-3-yl)benzo[b]thiophene-2-carboxamide] the procognitive effects (humans) was “can have procognitive effects in humans at unexpectedly low doses” and the memory [1] was “memory can be improved”.
